Test results published in ChEMBL document CHEMBL4152189, “Incorporation of nitric oxide donor into 1,3-dioxyxanthones leads to synergistic anticancer activity” (Eur J Med Chem, 2018).
Active and inactive are the calls of the source. The calls are words filed in the database; no cut-off is given here.

Experiments:
HepG2 [1] = test: Induction of apoptosis in human HepG2 cells at 0.66 uM after 24 hrs by Annexin-V/propidium iodide staining-based flow cytometric analysis; assay type: functional
HepG2 [2] = test: Cell cycle arrest in human HepG2 cells assessed as accumulation at S phase at 0.16 to 0.66 uM after 24 hrs by propidium iodide/RNAse staining-based flow cytometric analysis; assay type: functional
MCF7 = test: Growth inhibition of human MCF7 cells after 24 hrs by MTT assay; assay type: functional, cell-based; settings: MCF7, 24 h
HepG2 [3] = test: Induction of apoptosis in human HepG2 cells assessed as early apoptotic cells at 0.66 uM after 24 hrs by Annexin-V/propidium iodide staining-based flow cytometric analysis; assay type: functional
HepG2 [4] = test: Induction of apoptosis in human HepG2 cells assessed as inhibition of p53-MDM2 interaction by measuring downregulation of MDM2 expression at 1 uM after 24 hrs by Western blot analysis; assay type: functional, cell-based
HepG2 [5] = test: Induction of apoptosis in human HepG2 cells at 0.33 uM after 24 hrs by Annexin-V/propidium iodide staining-based flow cytometric analysis; assay type: functional
HepG2 [6] = test: Induction of NO generation in human HepG2 cells assessed as nitrite levels at 0.33 uM after 24 hrs by Griess assay (reference value: 12.8 +/- 1.7 uM); assay type: functional
HepG2 [7] = test: Growth inhibition of human HepG2 cells pre-incubated with NO scavenger carboxy-PTIO for 1 hr followed by 0.66 uM compound treatment for 24 hrs by MTT assay; assay type: functional, cell-based
HepG2 [8] = test: Induction of NO generation in human HepG2 cells assessed as nitrite levels at 0.33 uM after 1 hr by Griess assay (reference value: 12.9 +/- 1.5 uM); assay type: functional
HepG2 [9] = test: Induction of NO generation in human HepG2 cells assessed as nitrite levels at 0.66 uM after 48 hrs by Griess assay (reference value: 12.8 +/- 1.7 uM); assay type: functional
L02 = test: Induction of NO generation in human HL-7702 cells assessed as nitrite levels at 0.66 uM after 6 hrs by Griess assay (reference value: 11.8 +/- 1.1 uM); assay type: functional
HepG2 [10] = test: Induction of NO generation in human HepG2 cells assessed as nitrite levels at 0.16 uM after 24 hrs by Griess assay (reference value: 12.8 +/- 1.7 uM); assay type: functional
HepG2 [11] = test: Induction of NO generation in human HepG2 cells assessed as nitrite levels at 0.66 uM after 24 hrs by Griess assay (reference value: 12.8 +/- 1.7 uM); assay type: functional
HepG2 [12] = test: Induction of NO generation in human HepG2 cells assessed as nitrite levels at 0.66 uM after 3 hrs by Griess assay (reference value: 12.8 +/- 1.5 uM); assay type: functional
HepG2 [13] = test: Induction of NO generation in human HepG2 cells assessed as nitrite levels at 0.33 uM after 3 hrs by Griess assay (reference value: 12.8 +/- 1.5 uM); assay type: functional
HepG2 [14] = test: Cell cycle arrest in human HepG2 cells assessed as accumulation at S phase at 0.66 uM after 24 hrs by propidium iodide/RNAse staining-based flow cytometric analysis relative to control; assay type: functional

COc1cccc2oc3cc(OCCCCCO[N+](=O)[O-])cc(O)c3c(=O)c12
Activity (HepG2 [1]): 86.8% | Activity (HepG2 [2]): Active | IC50 (MCF7): 33.1 µM | Activity (HepG2 [3]): 45.1% | Activity (HepG2 [4]): Active | Activity (HepG2 [5]): 76.6% | Activity (HepG2 [6]): 35.1 µM | growth inhibition (GI) (HepG2 [7]): inactive | Activity (HepG2 [8]): 19.3 µM | Activity (HepG2 [9]): 28.1 µM | Activity (L02): 17.1 µM | Activity (HepG2 [10]): 26.2 µM | Activity (HepG2 [11]): 39.1 µM | Activity (HepG2 [12]): 25.7 µM | Activity (HepG2 [13]): 23.2 µM | Activity (HepG2 [14]): 93.1%
